In patent US20250000847A1, “TREATMENT OF NEURODEGENERATIVE DISEASES WITH HDAC INHIBITORS” (CASE WESTERN RESERVE UNIVERSITY, priority 2021, published 2025):
pIC50: −log10 of the molar value. Like-named read-outs stand apart in the source and are kept apart here.

Experiments:
HDAC = conditions: cell-free assay where stated; read-out: IC50 (pan-HDAC); cited from earlier work
[1] = target: class III isoenzyme SIRT I (Homo sapiens, UniProt Q96EB6); conditions: cited from earlier work
HDACs 2, 4, 10, and 11 = conditions: cited from earlier work
HDACs 6 and 7 = conditions: cited from earlier work
HDAC1 = HDAC1 (Homo sapiens, UniProt Q13547); conditions: cell-free assays where stated; cited from earlier work
HDAC2 = HDAC2 (Homo sapiens, UniProt Q92769); conditions: cell-free assays where stated; cited from earlier work
HDAC3 = HDAC3 (Homo sapiens, UniProt O15379); conditions: cell-free where stated; cited from earlier work
HDAC6 = HDAC6 (Homo sapiens, UniProt Q9UBN7); conditions: cell-free assays; cited from earlier work
maize HD2 = conditions: cell-free assays; cited from earlier work
maize HD1B = conditions: cell-free assays; cited from earlier work
maize HD1A = conditions: cell-free assays; cited from earlier work
HDACs 2, 3, 6, and 10 = conditions: cited from earlier work
acetylated H4 and H3 = conditions: cited from earlier work
HDAC8 = HDAC8 (Homo sapiens, UniProt Q9BY41); conditions: cited from earlier work
[2] = test system: HDAC4/5/7/9/11, Sirtuin1, and Sirtuin2; conditions: cited from earlier work
[3] = test system: MHC Class I (H-2Kb) bound to OVA257-264 on reactive astrocytes; experiment: OVA257-264 peptide antigen cross presentation assay; assay type: cell-based, mouse; conditions: for treated cells H-2 kB-OVA positive DRAs: reactive astrocytes without inhibitor more than about 80%
Experimental: To test whether HDAC inhibitors block the ability of reactive astrocytes to cross present exogenous antigen, cells were plated down in 96-well plates at a density of about 500 cells/mm^2. Cells were then treated with HDAC inhibitors for 1 hr prior to the addition of reactive astrocyte driving factors as the concentrations stated above. Cells were incubated for 24 hrs, after which, media was washed out and replaced with media containing the peptide fragment ovalbumin 257-264 (OVA257-264). Cells were then incubated overnight, and then stained for 2 hrs at 37° C. with APC-conjugated antibody against MHC Class I (H-2Kb) bound to OVA257-264, then visualized. The percent of H-2Kb positive cells as a percent of total live cells was determined (FIG. 3).
After 24 hours of treatment, these cells were cultured in the presence of the OVA257264 Peptide (GenScript RP10611 or Sigma S7951). After 12 hours, the cells were live-stained for two hours using a conjugated antibody targeted against an OVA257-264 peptide antigen. The cells were then fixed and imaged using the PerkinElmer Operetta CLS High-Content Analysis System.

CCL5 = CCL5 secretion by reactive astrocytes (ELISA); assay type: cell-based, mouse; conditions: FIG. 4
Experimental: Astrocytes were plated and treated exactly as described for the antigen cross presentation assay. However, after 24 hrs of incubation with either reactive astrocyte driving factors alone or with HDAC inhibitor treatment, conditioned media from the cells was collected and assayed for CCL5 using a commercially available colorimetric ELISA kit (RnD Cat #: DY478-05). Data was then fit to a standard four parameter logistic (4PL) curve and presented as pg/mL/cell, normalized to reactive astrocytes plus DMSO vehicle (FIG. 4).
Media was collected from mouse P2 primary astrocytes that had been cultured for 24 hrs in the presence of cytokines with and without HDAC3 inhibitors and compared to media from astrocytes not treated with cytokines. The concentration of CCL5, a cytokine secreted by reactive astrocytes, was measured in each of the respective media conditions based on the direct adsorption of CCL5 to a pre-coated capture antibody on the ELISA assay plate. The ELISA sandwich assay was performed according to the manufacturer's instructions (DY478-05, R&D Systems). Relative CCL5 concentration were measured based on absorbance measured by a plate reader.

RelA/P65 = experiment: Nuclear RelA/P65 in reactive astrocytes; assay type: cell-based, mouse
Experimental: For immunocytochemistry, cells were fixed with ice-cold 4% PFA for 15 minutes at room temperature, washed three times with PBS, blocked and permeabilized with 10% donkey serum and 0.1% Triton X-100 in PBS for 1 hr, and then stained with primary overnight followed by three washes with PBS, and then 1 hr incubation with Alexaflour secondary antibodies and DAPI. Stained cells were imaged using the PerkinElmer Operetta CLS High-Content Analysis System and analyzed using automated scripts in PerkinElmer Columbus Image Analysis software. Primary antibodies used were GBP2 (ProteinTech, 11854-1-AP), vimentin (BioLegend, 919101), RelA/P65 (Cell Signaling Tech, 6956), MBP (Abeam, AB7349).

HDAC3, sequence (O15379 whole entry, species assumed): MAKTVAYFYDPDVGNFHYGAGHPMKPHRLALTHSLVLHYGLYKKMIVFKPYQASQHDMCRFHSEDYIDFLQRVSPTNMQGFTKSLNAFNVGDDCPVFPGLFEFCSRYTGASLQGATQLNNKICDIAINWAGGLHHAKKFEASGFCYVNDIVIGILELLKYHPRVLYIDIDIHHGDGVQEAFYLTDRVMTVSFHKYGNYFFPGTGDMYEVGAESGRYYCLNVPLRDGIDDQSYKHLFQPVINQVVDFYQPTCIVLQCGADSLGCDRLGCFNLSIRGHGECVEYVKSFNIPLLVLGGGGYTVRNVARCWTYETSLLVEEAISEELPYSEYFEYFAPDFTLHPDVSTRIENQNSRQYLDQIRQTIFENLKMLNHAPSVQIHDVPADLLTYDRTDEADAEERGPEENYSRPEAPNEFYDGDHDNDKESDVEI
HDAC3, sequence (Q9Y618 395-489 partner limits assumed, species assumed): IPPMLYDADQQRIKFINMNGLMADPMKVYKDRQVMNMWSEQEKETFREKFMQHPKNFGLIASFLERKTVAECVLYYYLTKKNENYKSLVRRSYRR
class III isoenzyme SIRT I, sequence (Q96EB6 whole entry): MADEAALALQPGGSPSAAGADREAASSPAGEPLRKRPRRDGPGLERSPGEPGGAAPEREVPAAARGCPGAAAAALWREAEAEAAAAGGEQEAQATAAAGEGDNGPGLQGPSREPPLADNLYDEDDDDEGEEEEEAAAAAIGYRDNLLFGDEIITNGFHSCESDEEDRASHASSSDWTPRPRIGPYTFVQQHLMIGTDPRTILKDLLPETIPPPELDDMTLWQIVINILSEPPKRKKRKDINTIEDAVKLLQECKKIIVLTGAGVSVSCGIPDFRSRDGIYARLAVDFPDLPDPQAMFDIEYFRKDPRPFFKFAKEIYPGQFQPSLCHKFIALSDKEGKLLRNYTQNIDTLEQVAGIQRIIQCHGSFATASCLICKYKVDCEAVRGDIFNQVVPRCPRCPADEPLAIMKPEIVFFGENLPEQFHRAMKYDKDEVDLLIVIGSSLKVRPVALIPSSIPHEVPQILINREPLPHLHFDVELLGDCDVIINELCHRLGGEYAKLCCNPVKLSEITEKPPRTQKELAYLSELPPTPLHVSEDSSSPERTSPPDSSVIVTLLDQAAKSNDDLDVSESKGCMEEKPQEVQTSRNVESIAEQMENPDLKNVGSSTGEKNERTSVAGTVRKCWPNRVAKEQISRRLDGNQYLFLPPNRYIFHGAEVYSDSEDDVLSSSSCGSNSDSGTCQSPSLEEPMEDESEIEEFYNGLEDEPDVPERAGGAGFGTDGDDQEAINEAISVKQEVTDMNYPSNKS
HDAC6, sequence (Q9UBN7 whole entry, species assumed): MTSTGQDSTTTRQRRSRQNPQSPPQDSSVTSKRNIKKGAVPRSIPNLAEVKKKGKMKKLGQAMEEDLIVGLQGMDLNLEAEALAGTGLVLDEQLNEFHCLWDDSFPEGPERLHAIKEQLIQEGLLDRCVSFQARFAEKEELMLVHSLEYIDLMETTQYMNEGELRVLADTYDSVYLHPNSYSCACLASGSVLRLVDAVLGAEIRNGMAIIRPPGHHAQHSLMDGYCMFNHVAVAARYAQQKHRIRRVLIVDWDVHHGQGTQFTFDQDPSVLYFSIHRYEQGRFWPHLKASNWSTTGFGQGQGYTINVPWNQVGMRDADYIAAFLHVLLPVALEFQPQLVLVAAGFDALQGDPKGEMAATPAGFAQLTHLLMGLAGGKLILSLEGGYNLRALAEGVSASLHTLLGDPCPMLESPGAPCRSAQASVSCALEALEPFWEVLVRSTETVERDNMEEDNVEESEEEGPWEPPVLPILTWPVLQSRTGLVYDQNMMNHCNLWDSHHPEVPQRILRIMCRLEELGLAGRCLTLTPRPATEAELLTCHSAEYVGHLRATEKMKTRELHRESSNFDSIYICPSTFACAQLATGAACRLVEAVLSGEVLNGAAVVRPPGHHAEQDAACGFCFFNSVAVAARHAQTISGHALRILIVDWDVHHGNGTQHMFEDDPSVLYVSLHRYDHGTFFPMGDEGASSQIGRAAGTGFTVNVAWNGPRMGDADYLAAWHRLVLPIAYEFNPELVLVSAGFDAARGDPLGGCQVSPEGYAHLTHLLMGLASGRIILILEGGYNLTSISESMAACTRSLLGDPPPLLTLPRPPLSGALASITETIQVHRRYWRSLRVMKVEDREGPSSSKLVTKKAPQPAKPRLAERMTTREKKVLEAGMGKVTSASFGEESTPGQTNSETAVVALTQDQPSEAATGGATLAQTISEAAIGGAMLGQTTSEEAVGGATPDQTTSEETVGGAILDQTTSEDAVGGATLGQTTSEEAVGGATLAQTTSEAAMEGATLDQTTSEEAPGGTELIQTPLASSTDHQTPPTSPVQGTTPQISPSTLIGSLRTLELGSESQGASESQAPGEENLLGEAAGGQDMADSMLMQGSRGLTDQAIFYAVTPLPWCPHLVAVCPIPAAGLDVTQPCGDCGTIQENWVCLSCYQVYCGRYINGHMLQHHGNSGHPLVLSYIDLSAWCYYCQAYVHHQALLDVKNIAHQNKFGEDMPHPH
HDAC2, sequence (Q92769 whole entry, species assumed): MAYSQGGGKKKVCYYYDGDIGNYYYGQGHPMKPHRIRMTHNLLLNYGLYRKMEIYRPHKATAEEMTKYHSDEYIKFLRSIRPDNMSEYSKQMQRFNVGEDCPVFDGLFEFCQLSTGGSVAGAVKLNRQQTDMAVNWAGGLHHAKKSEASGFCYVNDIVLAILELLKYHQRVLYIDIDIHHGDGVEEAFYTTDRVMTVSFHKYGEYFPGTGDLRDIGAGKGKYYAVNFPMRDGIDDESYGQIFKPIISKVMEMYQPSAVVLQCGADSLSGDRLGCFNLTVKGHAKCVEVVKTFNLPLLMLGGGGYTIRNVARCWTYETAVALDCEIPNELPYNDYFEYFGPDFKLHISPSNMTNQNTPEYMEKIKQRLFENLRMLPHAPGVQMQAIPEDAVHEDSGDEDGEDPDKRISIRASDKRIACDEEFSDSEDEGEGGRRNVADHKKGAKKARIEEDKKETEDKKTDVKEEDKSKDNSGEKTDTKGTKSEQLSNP
HDAC8, sequence (Q9BY41 whole entry, species assumed): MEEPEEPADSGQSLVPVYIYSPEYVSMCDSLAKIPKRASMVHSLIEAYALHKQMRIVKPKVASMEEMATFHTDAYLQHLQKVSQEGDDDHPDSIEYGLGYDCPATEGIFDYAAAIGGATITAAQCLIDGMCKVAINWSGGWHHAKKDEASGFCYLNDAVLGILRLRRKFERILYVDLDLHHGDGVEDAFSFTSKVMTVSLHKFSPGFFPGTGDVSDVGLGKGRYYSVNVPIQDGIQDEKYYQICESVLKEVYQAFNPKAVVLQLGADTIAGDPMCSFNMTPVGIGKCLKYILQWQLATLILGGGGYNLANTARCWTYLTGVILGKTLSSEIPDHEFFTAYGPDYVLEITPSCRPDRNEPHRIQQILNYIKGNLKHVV
HDAC1, sequence (Q13547 whole entry, species assumed): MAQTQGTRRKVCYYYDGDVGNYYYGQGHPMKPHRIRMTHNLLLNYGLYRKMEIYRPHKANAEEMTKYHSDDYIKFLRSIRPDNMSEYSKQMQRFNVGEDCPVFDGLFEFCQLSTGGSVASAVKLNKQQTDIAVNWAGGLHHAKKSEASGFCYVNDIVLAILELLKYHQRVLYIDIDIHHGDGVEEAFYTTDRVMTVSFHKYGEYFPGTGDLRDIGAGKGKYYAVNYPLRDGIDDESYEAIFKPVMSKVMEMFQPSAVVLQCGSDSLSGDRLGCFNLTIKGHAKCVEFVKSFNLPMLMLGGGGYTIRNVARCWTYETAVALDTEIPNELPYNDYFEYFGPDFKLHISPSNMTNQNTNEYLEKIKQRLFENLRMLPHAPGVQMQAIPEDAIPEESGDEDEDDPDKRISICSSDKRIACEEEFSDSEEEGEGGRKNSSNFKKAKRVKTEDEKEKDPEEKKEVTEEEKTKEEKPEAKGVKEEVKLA

Compound: CCCCc1nc2cc(/C=C/C(=O)NO)ccc2n1CCN(CC)CC [Pracinostat]
- pIC50 (HDAC): 6.85 to 7.40
- activity against the class III isoenzyme SIRT I [1]: no

Compound: O=C(/C=C/c1ccc(CN(CCO)CCc2c[nH]c3ccccc23)cc1)NO [Dacinostat]
- pIC50 (HDAC): 7.49

Compound: Cn1cc(CNCC2CCN(c3ncc(C(=O)NO)cn3)CC2)c2ccccc21 [Quisinostat]
- potency to HDACs 2, 4, 10, and 11 (HDACs 2, 4, 10, and 11): modest potent
- potency to HDACs 6 and 7 (HDACs 6 and 7): selectivity against HDACs 3, 5, 8, and 9 and lowest

Compound: CC(C)[C@H](C(=O)Nc1ccc(C(=O)NO)cc1)c1ccccc1 [AR-42]
- pIC50 (HDAC): 7.52

Compound: CN(C)c1ccc(C(=O)NCCCCCCC(=O)NO)cc1 [M344]
- pIC50 (HDAC): 7.00

Compound: Nc1ccccc1NC(=O)c1cnccn1 [BG45]
- pIC50 (HDAC1): 5.70
- pIC50 (HDAC2): 5.66
- pIC50 (HDAC3): 6.54
- pIC50 (HDAC6): < 4.70

Compound: CCN(CC)Cc1ccc2cc(COC(=O)Nc3ccc(C(=O)NO)cc3)ccc2c1 [Givinostat]
- pIC50 (maize HD2): 8.00
- pIC50 (maize HD1B): 8.12
- pIC50 (maize HD1A): 7.80

Compound: CN(C)Cc1c(C(=O)NCCOc2ccc(C(=O)NO)cc2)oc2ccccc12 [Abexinostat]
- potency to HDACs 2, 3, 6, and 10 (HDACs 2, 3, 6, and 10): modest potent to HDACs 2, 3, 6, and 10 and greater

Compound: O=C(CCCCCN1C(=O)c2cccc3cccc(c23)C1=O)NO [Scriptaid]
- effect on acetylated H4 versus H3 (acetylated H4 and H3): greater effect on acetylated H4 than H3.

Compound: O=C(CCCCCCNC(=O)c1cnc(N(c2ccccc2)c2ccccc2)nc1)NO [Rocilinostat]
- activity against HDAC8 (HDAC8): slight activity
- activity against HDAC4/5/7/9/11, Sirtuin1, and Sirtuin2 [2]: minimal

Compound: Trichostatin A
- pIC50 (HDAC): ~8.74

Compound: Nc1ccccc1NC(=O)c1ccc(-c2cn(CCc3ccsc3)nn2)cc1 [T247]
- ability of reactive astrocytes to cross present antigen on MHC Class I ([3]; FIG. 3): decrease
- treated cells H-2 kB-OVA positive DRAs ([3]; about 2.5 μM): about 8%
- treated cells H-2 kB-OVA positive DRAs ([3]; about 5.0 μM): about 20%
- secretion of CCL5 by reactive astrocytes (CCL5): significantly decrease
- nuclear RelA/P65 (RelA/P65): decreases
- nuclear RelA/P65 (RelA/P65; listed as T24710): decreased
- pIC50 (HDAC3): 7.26
